Source: the OligoGym collection
Several values for one entry are separate records, joined by “and”; a condition that tells them apart may be missing. Identical values can stand only once. HELM strings list units from the 5' end as sugar, base in round brackets, then linkage (d deoxyribose, r ribose, m 2'-O-methyl, p phosphodiester). Strings are as the collection lists them, not checked against the first reports. ss, as = sense and antisense strand; [lna] = locked nucleic acid (LNA); [hna] = hexitol nucleic acid; [fl2r] = 2'-fluoro

Conditions: siRNA
Also: test system not given here.

Substance: RNA1{[hna](G)p.[hna](A)p.[hna](C)p.r(G)p.r(U)p.r(A)p.r(A)p.r(A)p.r(C)p.r(G)p.r(G)p.r(C)p.r(C)p.r(A)p.r(C)p.r(A)p.r(A)p.[hna](G)p.[hna](U)p.r(U)p.d(T)}|RNA2{r(A)p.r(C)p.r(U)p.r(U)p.r(G)p.r(U)p.r(G)p.r(G)p.r(C)p.r(C)p.r(G)p.r(U)p.r(U)p.r(U)p.r(A)p.r(C)p.r(G)p.r(U)p.[lna](C)p.[lna](G)p.r(C)}$$$RNA1{StrandType:ss}|RNA2{StrandType:as}$
- target mRNA knockdown: 84.7%

Substance: RNA1{[lna](A)p.r(A)p.r(A)p.r(C)p.r(A)p.r(U)p.r(G)p.r(C)p.r(A)p.r(G)p.r(A)p.r(A)p.r(A)p.r(A)p.r(U)p.r(G)p.r(C)p.r(U)p.r(G)p.[lna](T)p.[lna](T)}|RNA2{r(C)p.r(A)p.r(G)p.r(C)p.r(A)p.r(U)p.r(U)p.r(U)p.r(U)p.r(C)p.r(U)p.r(G)p.r(C)p.r(A)p.r(U)p.r(G)p.r(U)p.r(U)p.r(U)p.r(T)p.r(T)}$$$RNA1{StrandType:ss}|RNA2{StrandType:as}$
- target mRNA knockdown: 82%

Substance: RNA1{[lna](A)p.r(C)p.r(U)p.r(G)p.r(U)p.r(C)p.r(A)p.r(A)p.r(A)p.r(C)p.r(C)p.r(C)p.r(G)p.r(G)p.r(U)p.r(A)p.r(A)p.r(U)p.r(U)p.[lna](T)p.[lna](T)}|RNA2{r(A)p.r(A)p.r(U)p.r(U)p.r(A)p.r(C)p.r(C)p.r(G)p.r(G)p.r(G)p.r(U)p.r(U)p.r(U)p.r(G)p.r(A)p.r(C)p.r(A)p.r(G)p.r(U)p.[lna](T)p.[lna](T)}$$$RNA1{StrandType:ss}|RNA2{StrandType:as}$
- target mRNA knockdown: 52%

Substance: RNA1{[lna](A)p.r(U)p.r(C)p.r(U)p.r(G)p.r(A)p.r(A)p.r(G)p.r(A)p.r(A)p.r(G)p.r(G)p.r(A)p.r(G)p.r(A)p.r(A)p.r(A)p.r(A)p.r(A)p.[lna](T)p.[lna](T)}|RNA2{[lna](T)p.r(U)p.r(U)p.r(U)p.r(U)p.r(C)p.r(U)p.r(C)p.r(C)p.r(U)p.r(U)p.r(C)p.r(U)p.r(U)p.r(C)p.r(A)p.r(G)p.r(A)p.r(U)p.[lna](T)p.[lna](T)}$$$RNA1{StrandType:ss}|RNA2{StrandType:as}$
- target mRNA knockdown: 65% and 75%

Substance: RNA1{[lna](A)p.r(U)p.r(C)p.r(U)p.r(G)p.r(A)p.r(A)p.r(G)p.r(A)p.r(A)p.r(G)p.r(G)p.r(A)p.r(G)p.r(A)p.r(A)p.r(A)p.r(A)p.r(A)p.[lna](T)p.[lna](T)}|RNA2{r(U)p.r(U)p.r(U)p.r(U)p.r(U)p.r(C)p.r(U)p.r(C)p.r(C)p.r(U)p.r(U)p.r(C)p.r(U)p.r(U)p.r(C)p.r(A)p.r(G)p.r(A)p.r(U)p.[lna](T)p.[lna](T)}$$$RNA1{StrandType:ss}|RNA2{StrandType:as}$
- target mRNA knockdown: 93% and 95%

Substance: RNA1{[lna](C)p.r(U)p.r(A)p.r(A)p.r(G)p.r(G)p.r(A)p.r(C)p.r(C)p.r(U)p.r(A)p.r(A)p.r(C)p.r(A)p.r(A)p.r(A)p.r(G)p.r(U)p.r(U)p.r(U)p.r(U)}|RNA2{r(A)p.r(A)p.r(C)p.r(U)p.r(U)p.r(U)p.r(G)p.r(U)p.r(U)p.r(A)p.r(G)p.r(G)p.r(U)p.r(C)p.r(C)p.r(U)p.r(U)p.r(A)p.r(G)p.r(U)p.r(U)}$$$RNA1{StrandType:ss}|RNA2{StrandType:as}$
- target mRNA knockdown: 64%

Substance: RNA1{[lna](G)p.[lna](C)p.[lna](T)p.r(G)p.r(A)p.r(C)p.[lna](C)p.r(C)p.r(U)p.[lna](G)p.r(A)p.r(A)p.r(G)p.[lna](T)p.[lna](T)p.r(C)p.r(A)p.r(U)p.r(C)p.[lna](T)p.[lna](T)}|RNA2{r(G)p.r(A)p.r(U)p.r(G)p.r(A)p.r(A)p.r(C)p.r(U)p.r(U)p.r(C)p.r(A)p.r(G)p.r(G)p.r(G)p.r(U)p.r(C)p.r(A)p.r(G)p.r(C)p.[lna](T)p.[lna](T)}$$$RNA1{StrandType:ss}|RNA2{StrandType:as}$
- target mRNA knockdown: 0%

Substance: RNA1{[lna](G)p.r(C)p.r(A)p.r(G)p.r(C)p.r(A)p.r(C)p.r(G)p.r(A)p.r(C)p.r(U)p.r(U)p.r(C)p.r(U)p.r(U)p.r(C)p.r(A)p.r(A)p.r(G)p.r(U)p.r(U)}|RNA2{r(C)p.[fl2r](U)p.r(U)p.r(G)p.r(A)p.r(A)p.r(G)p.r(A)p.r(A)p.r(G)p.r(U)p.r(C)p.r(G)p.r(U)p.r(G)p.r(C)p.r(U)p.r(G)p.r(C)p.r(U)p.r(U)}$$$RNA1{StrandType:ss}|RNA2{StrandType:as}$
- target mRNA knockdown: 69.3%

Substance: RNA1{[lna](G)p.r(C)p.r(A)p.r(G)p.r(C)p.r(A)p.r(C)p.r(G)p.r(A)p.r(C)p.r(U)p.r(U)p.r(C)p.r(U)p.r(U)p.r(C)p.r(A)p.r(A)p.r(G)p.r(U)p.r(U)}|RNA2{r(C)p.m(U)p.r(U)p.r(G)p.r(A)p.r(A)p.r(G)p.r(A)p.r(A)p.r(G)p.r(U)p.r(C)p.r(G)p.r(U)p.r(G)p.r(C)p.r(U)p.r(G)p.r(C)p.r(U)p.r(U)}$$$RNA1{StrandType:ss}|RNA2{StrandType:as}$
- target mRNA knockdown: 68.6%

Substance: RNA1{[lna](G)p.r(C)p.r(A)p.r(G)p.r(C)p.r(A)p.r(C)p.r(G)p.r(A)p.r(C)p.r(U)p.r(U)p.r(C)p.r(U)p.r(U)p.r(C)p.r(A)p.r(A)p.r(G)p.r(U)p.r(U)}|RNA2{r(C)p.r(U)p.r(U)p.r(G)p.r(A)p.r(A)p.r(G)p.r(A)p.r(A)p.r(G)p.r(U)p.r(C)p.r(G)p.r(U)p.r(G)p.r(C)p.r(U)p.r(G)p.r(C)p.r(U)p.r(U)}$$$RNA1{StrandType:ss}|RNA2{StrandType:as}$
- target mRNA knockdown: 73.2%

Substance: RNA1{[lna](G)p.r(C)p.r(U)p.r(G)p.r(A)p.r(C)p.r(C)p.r(C)p.r(U)p.r(G)p.r(A)p.r(A)p.r(G)p.r(U)p.r(U)p.r(C)p.r(A)p.r(U)p.r(C)p.[lna](T)p.[lna](T)}|RNA2{r(G)p.r(A)p.r(U)p.r(G)p.r(A)p.r(A)p.r(C)p.r(U)p.r(U)p.r(C)p.r(A)p.r(G)p.r(G)p.r(G)p.r(U)p.r(C)p.r(A)p.r(G)p.r(C)p.[lna](T)p.[lna](T)}$$$RNA1{StrandType:ss}|RNA2{StrandType:as}$
- target mRNA knockdown: 61%

Substance: RNA1{[lna](G)p.r(G)p.r(A)p.r(U)p.r(G)p.r(A)p.r(G)p.r(G)p.r(A)p.r(A)p.r(G)p.r(G)p.r(C)p.r(A)p.r(A)p.r(U)p.r(U)p.r(U)p.r(A)p.[lna](T)p.[lna](T)}|RNA2{r(U)p.r(A)p.r(A)p.r(A)p.r(U)p.r(U)p.r(G)p.r(C)p.r(C)p.r(U)p.r(U)p.r(C)p.r(C)p.r(U)p.r(C)p.r(A)p.r(U)p.r(C)p.r(C)p.[lna](T)p.[lna](T)}$$$RNA1{StrandType:ss}|RNA2{StrandType:as}$
- target mRNA knockdown: 50%

Substance: RNA1{[lna](G)p.r(G)p.r(C)p.r(C)p.r(U)p.r(U)p.r(U)p.r(C)p.r(A)p.r(C)p.r(U)p.r(A)p.r(C)p.r(U)p.r(C)p.r(C)p.r(U)p.r(A)p.r(C)p.[lna](G)p.[lna](A)}|RNA2{r(G)p.r(U)p.r(A)p.r(G)p.r(G)p.r(A)p.r(G)p.r(U)p.r(A)p.r(G)p.r(U)p.r(G)p.r(A)p.r(A)p.r(A)p.r(G)p.r(G)p.r(C)p.r(C)p.r(A)p.r(G)}$$$RNA1{StrandType:ss}|RNA2{StrandType:as}$
- target mRNA knockdown: 83%

Substance: RNA1{[lna](G)p.r(G)p.r(C)p.r(C)p.r(U)p.r(U)p.r(U)p.r(C)p.r(A)p.r(C)p.r(U)p.r(A)p.r(C)p.r(U)p.r(C)p.r(C)p.r(U)p.r(A)p.r(C)p.r(G)p.r(A)}|RNA2{r(G)p.r(U)p.r(A)p.r(G)p.r(G)p.r(A)p.r(G)p.r(U)p.r(A)p.r(G)p.r(U)p.r(G)p.r(A)p.r(A)p.r(A)p.r(G)p.r(G)p.r(C)p.r(C)p.r(A)p.r(G)}$$$RNA1{StrandType:ss}|RNA2{StrandType:as}$
- target mRNA knockdown: 86%

Substance: RNA1{[lna](T)p.r(C)p.r(C)p.r(A)p.r(G)p.r(A)p.r(A)p.r(C)p.r(A)p.r(A)p.r(A)p.r(G)p.r(G)p.r(A)p.r(A)p.r(A)p.r(C)p.r(G)p.r(G)p.[lna](T)p.[lna](T)}|RNA2{r(C)p.r(C)p.r(G)p.r(U)p.r(U)p.r(U)p.r(C)p.r(C)p.r(U)p.r(U)p.r(U)p.r(G)p.r(U)p.r(U)p.r(C)p.r(U)p.r(G)p.r(G)p.r(A)p.r(T)p.r(T)}$$$RNA1{StrandType:ss}|RNA2{StrandType:as}$
- target mRNA knockdown: 50%

Substance: RNA1{[lna](T)p.r(G)p.[lna](A)p.r(G)p.[lna](A)p.r(G)p.r(A)p.r(A)p.[lna](A)p.r(G)p.r(C)p.[lna](A)p.r(C)p.[lna](A)p.r(G)p.r(A)p.[lna](A)p.r(A)p.r(A)p.[lna](T)p.[lna](T)}|RNA2{r(U)p.r(G)p.r(A)p.r(G)p.r(A)p.r(G)p.r(A)p.r(A)p.r(A)p.r(G)p.r(C)p.r(A)p.r(C)p.r(A)p.r(G)p.r(A)p.r(A)p.r(A)p.r(A)p.d(T)p.d(T)}$$$RNA1{StrandType:ss}|RNA2{StrandType:as}$
- target mRNA knockdown: 64%

Substance: RNA1{[lna](T)p.r(G)p.[lna](A)p.r(G)p.[lna](A)p.r(G)p.r(A)p.r(A)p.[lna](A)p.r(G)p.r(C)p.[lna](A)p.r(C)p.[lna](A)p.r(G)p.r(A)p.[lna](A)p.r(A)p.r(A)p.[lna](T)p.[lna](T)}|RNA2{r(U)p.r(U)p.r(U)p.r(U)p.r(C)p.r(U)p.r(G)p.r(U)p.r(G)p.r(C)p.r(U)p.r(U)p.r(U)p.r(C)p.r(U)p.r(C)p.r(U)p.r(C)p.r(A)p.r(T)p.r(T)}$$$RNA1{StrandType:ss}|RNA2{StrandType:as}$
- target mRNA knockdown: 68%

Substance: RNA1{[lna](T)p.r(G)p.r(A)p.r(G)p.r(A)p.r(G)p.r(A)p.r(A)p.r(A)p.r(G)p.r(C)p.r(A)p.r(C)p.r(A)p.r(G)p.r(A)p.r(A)p.r(A)p.r(A)p.[lna](T)p.[lna](T)}|RNA2{[lna](T)p.r(U)p.r(U)p.r(U)p.r(C)p.r(U)p.r(G)p.r(U)p.r(G)p.r(C)p.r(U)p.r(U)p.r(U)p.r(C)p.r(U)p.r(C)p.r(U)p.r(C)p.r(A)p.[lna](T)p.[lna](T)}$$$RNA1{StrandType:ss}|RNA2{StrandType:as}$
- target mRNA knockdown: 67% and 72%

Substance: RNA1{[lna](T)p.r(G)p.r(A)p.r(G)p.r(A)p.r(G)p.r(A)p.r(A)p.r(A)p.r(G)p.r(C)p.r(A)p.r(C)p.r(A)p.r(G)p.r(A)p.r(A)p.r(A)p.r(A)p.[lna](T)p.[lna](T)}|RNA2{r(U)p.r(U)p.r(U)p.r(U)p.r(C)p.r(U)p.r(G)p.r(U)p.r(G)p.r(C)p.r(U)p.r(U)p.r(U)p.r(C)p.r(U)p.r(C)p.r(U)p.r(C)p.r(A)p.d(T)p.d(T)}$$$RNA1{StrandType:ss}|RNA2{StrandType:as}$
- target mRNA knockdown: 70%

Substance: RNA1{[lna](T)p.r(G)p.r(A)p.r(G)p.r(A)p.r(G)p.r(A)p.r(A)p.r(A)p.r(G)p.r(C)p.r(A)p.r(C)p.r(A)p.r(G)p.r(A)p.r(A)p.r(A)p.r(A)p.[lna](T)p.[lna](T)}|RNA2{r(U)p.r(U)p.r(U)p.r(U)p.r(C)p.r(U)p.r(G)p.r(U)p.r(G)p.r(C)p.r(U)p.r(U)p.r(U)p.r(C)p.r(U)p.r(C)p.r(U)p.r(C)p.r(A)p.r(T)p.r(T)}$$$RNA1{StrandType:ss}|RNA2{StrandType:as}$
- target mRNA knockdown: 74%
